# Experimental data from patent US20250136579A1, “SALTS AND FREE BASES OF BIFUNCTIONAL COMPOUND AND POLYMORPH FORMS THEREOF” (NURIX THERAPEUTICS, INC., priority 2023, published 2025).
# Entries after “also recorded” stand apart in the source; their conditions may differ. Counter-ions that a name gives are not always drawn.
# How the values were obtained:
# [1] = stressing at 40° C./75% relative humidity (stability study, XRPD); assay type: physicochemical; conditions: for physical stability to stressing at 40° C./75% relative humidity (RH): 7 days
# [2] = storage under ambient conditions (15° C. to 30° C.), form conversion; assay type: physicochemical; conditions: temperature of from 15° C. to 30° C.
# Description: For Free Base Form E, Free Base Form F, Free Base Form G, Free Base Form H, and Free Base Form J: two different instruments were used for characterizing the materials by XRPD. Samples were analysed dry with a Malvern Panalytical Xpert Pro diffractometer, except for Free Base Form F. Free Base Form F was analysed using a Malvern Panalytical Empyrean diffractometer.
# Napsylate Salt Form C was analysed by XRPD.
Compound,physical stability to stressing at 40° C./75% relative humidity (RH) [1],physical stability to ambient conditions [2],form after stressing at 40° C./75% relative humidity (RH) ([1]; 1 week (FIG. 72))
CN1CCN([C@@H]2CCCN(c3cnc(C(N)=O)c(Nc4ccc(C5CCN(CC6CCN(c7ccc(C(=O)N[C@H]8CCC(=O)NC8=O)nc7)CC6)CC5)cc4)n3)C2)C1=O [Free Base Form G],not physically stable,–,–
CN1CCN([C@@H]2CCCN(c3cnc(C(N)=O)c(Nc4ccc(C5CCN(CC6CCN(c7ccc(C(=O)N[C@H]8CCC(=O)NC8=O)nc7)CC6)CC5)cc4)n3)C2)C1=O [Napsylate Salt Form B],–,conversion to Napsylate Salt Form C,–
CN1CCN([C@@H]2CCCN(c3cnc(C(N)=O)c(Nc4ccc(C5CCN(CC6CCN(c7ccc(C(=O)N[C@H]8CCC(=O)NC8=O)nc7)CC6)CC5)cc4)n3)C2)C1=O [Free Base Form H],physically stable,–,–
CN1CCN([C@@H]2CCCN(c3cnc(C(N)=O)c(Nc4ccc(C5CCN(CC6CCN(c7ccc(C(=O)N[C@H]8CCC(=O)NC8=O)nc7)CC6)CC5)cc4)n3)C2)C1=O [Free Base Form E],physically stable,–,–
CN1CCN([C@@H]2CCCN(c3cnc(C(N)=O)c(Nc4ccc(C5CCN(CC6CCN(c7ccc(C(=O)N[C@H]8CCC(=O)NC8=O)nc7)CC6)CC5)cc4)n3)C2)C1=O [Succinate Salt Form B],–,–,converted back to Succinate Salt Form A
CN1CCN([C@@H]2CCCN(c3cnc(C(N)=O)c(Nc4ccc(C5CCN(CC6CCN(c7ccc(C(=O)N[C@H]8CCC(=O)NC8=O)nc7)CC6)CC5)cc4)n3)C2)C1=O [Free Base Form F],not physically stable,converted on drying at ambient conditions (including a temperature of from 15 °C to 30° C.) to Free Base Form J; also recorded: not physically stable,–
